Data on 26 compounds can be found in patent publication US20140171393A1, “NOVEL AROMATIC THIO COMPOUNDS AS RECEPTOR MODULATORS” (Allergan, Inc., priority 2012, published 2014).

pEC50: −log10 of the molar value.

T1 sequence (P21453 whole entry): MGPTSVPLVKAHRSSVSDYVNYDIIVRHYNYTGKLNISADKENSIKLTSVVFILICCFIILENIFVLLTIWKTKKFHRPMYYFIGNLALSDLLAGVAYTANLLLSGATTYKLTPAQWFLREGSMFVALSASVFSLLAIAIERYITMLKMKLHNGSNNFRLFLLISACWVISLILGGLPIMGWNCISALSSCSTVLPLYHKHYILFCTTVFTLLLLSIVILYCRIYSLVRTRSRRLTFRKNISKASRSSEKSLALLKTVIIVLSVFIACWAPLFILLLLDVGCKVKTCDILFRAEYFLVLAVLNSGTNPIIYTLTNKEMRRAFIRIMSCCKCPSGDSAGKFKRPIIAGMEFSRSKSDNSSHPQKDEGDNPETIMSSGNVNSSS

The first experiment relates to blood lymphocytes. The experiment in a line: Lymphopenia assay in mice. It counts as in vivo. To be noted: 10 mg/Kg subcutaneously, female C57BL6 mice, after 5 hours, FIG. 1. The procedure:
Test drugs are prepared in a solution containing 3% (w/v) 2-hydroxy propyl β-cyclodextrin (HPBCD) and 1% DMSO to a final concentration of 1 mg/ml, and subcutaneously injected to female C57BL6 mice (CHARLES RIVERS) weighing 20-25 g at the dose of 0.5 to 10 mg/Kg. Blood samples are obtained by puncturing the submandibular skin with a Goldenrod animal lancet at 5, 24, 48, 72, and 96 hrs post drug application. Blood is collected into microvettes (SARSTEDT) containing EDTA tripotassium salt. Lymphocytes in blood samples are counted using a HEMAVET Multispecies Hematology System, HEMAVET HV950FS (Drew Scientific Inc.).
A lymphopenia assay in mice; as previously described, was employed to measure the in vivo blood lymphocyte depletion after dosing with the test compound: [3-({3-bromo-4-[(5-phenylpentyl)thio]benzyl}amino)propyl]phosphonic acid Compound-1. This S1P1 modulator, [3-({3-bromo-4-[(5-phenylpentyl)thio]benzyl}amino)propyl]phosphonic acid Compound-1 is useful for S1P-related diseases and exemplified by the lymphopenia in vivo response. […] Lymphocytes in blood samples were counted using a HEMAVET Multispecies Hematology System, HEMAVET HV950FS (Drew Scientific Inc.). […]
Regarding `O=P(O)(O)CCCNCc1ccc(SCCCCCc2ccccc2)c(Br)c1` [Compound-1, [3-({3-bromo-4-[(5-phenylpentyl)thio]benzyl}amino)propyl]phosphonic acid], the “lymphocyte count (number of lymphocytes in blood)” value is < 1 10^3/μL blood.

Another experiment addresses T1, human S1P1 receptor (Homo sapiens, UniProt P21453).
T1 construct: expressed in transfected cells; membranes were used
The experiment in a line: GTP γ35S binding assay for S1P1 activity. Conditions: membranes of cells stably expressing the S1P1 receptor, read-out: Activity potency: S1P1 receptor from GTP γ35S, S1P1 EC50. The class given is biochemical. The procedure: Compounds were tested for S1P1 activity using the GTP γ^35S binding assay. These compounds may be assessed for their ability to activate or block activation of the human S1P1 receptor in cells stably expressing the S1P1 receptor.
GTP γ^35S binding was measured in the medium containing (mM) HEPES 25, pH 7.4, MgCl2 10, NaCl 100, dithitothreitol 0.5, digitonin 0.003%, 0.2 nM GTP γ^355, and 5 μg membrane protein in a volume of 150 μl. Test compounds were included in the concentration range from 0.08 to 5,000 nM unless indicated otherwise. Membranes were incubated with 100 μM 5′-adenylylimmidodiphosphate for 30 min, and subsequently with 10 μM GDP for 10 min on ice. Drug solutions and membrane were mixed, and then reactions were initiated by adding GTP γ^355 and continued for 30 min at 25° C. Reaction mixtures were filtered over Whatman GF/B filters under vacuum, and washed three times with 3 mL of ice-cold buffer (HEPES 25, pH7.4, MgCl2 10 and NaCl 100). Filters were dried and mixed with scintillant, and counted for ^35S activity using a 8-counter. Agonist-induced GTP γ^355 binding was obtained by subtracting that in the absence of agonist. Binding data were analyzed using a non-linear regression method. In case of antagonist assay, the reaction mixture contained 10 nM S1P in the presence of test antagonist at concentrations ranging from 0.08 to 5000 nM.
(GTPγS resists hydrolysis and so accumulates on activated G proteins.)
Consider `O=P(O)(O)CCCNCc1ccc(SCCCCCc2ccccc2)cc1C(F)(F)F` [Compound 3, [3-({4-[(5-phenylpentyl)thio]-2-(trifluoromethyl)benzyl}amino)propyl]phosphonic acid], for which the pEC50 is 7.87.

Consider `O=P(O)(O)CCCNCc1ccc(SCCCCCc2ccccc2)cc1Cl` [Compound 4, [3-({2-chloro-4-[(5-phenylpentyl)thio]benzyl}amino)propyl]phosphonic acid], for which the pEC50 was 8.66.

As for `O=P(O)(O)CCCNCc1ccc(SCCCCCc2ccccc2)c(Cl)c1` [Compound 5, [3-({3-chloro-4-[(5-phenylpentyl)thio]benzyl}amino)propyl]phosphonic acid], the pEC50 is 8.82.

Take `O=P(O)(O)CCCNCc1ccc(SCCCCCc2ccccc2)cc1` [Compound 6, [3-({4-[(5-phenylpentyl)thio]benzyl}amino)propyl]phosphonic acid]: the pEC50 is 8.48.

For `O=P(O)(O)CCCNCc1ccc(SCCCCCc2ccccc2)c(OC(F)(F)F)c1` [Compound 7, [3-({4-[(5-phenylpentyl)thio]-3-(trifluoromethoxy)benzyl}amino)propyl]phosphonic acid], the pEC50 was 9.22.

For `N#Cc1cc(CNCCCP(=O)(O)O)ccc1SCCCCCc1ccccc1` [Compound 8, [3-({3-cyano-4-[(5-phenylpentyl)thio]benzyl}amino)propyl]phosphonic acid], the pEC50 is 8.21.

Consider `Cc1cc(CNCCCP(=O)(O)O)ccc1SCCCCCc1ccc(F)cc1` [Compound 9, {3-[(4-{[5-(4-fluorophenyl)pentyl]thio}-3-methylbenzyl)amino]propyl}phosphonic acid], for which the pEC50 was 7.57.

Consider `O=P(O)(O)CCCNCc1ccc(SCCCCCc2ccc(F)cc2)c(C(F)(F)F)c1` [Compound 10, (3-{[4-{[5-(4-fluorophenyl)pentyl]thio}-3-(trifluoromethyl)benzyl]amino}propyl)phosphonic acid], for which the pEC50 was 8.27.

As for `COc1ccc(CCCCCSc2ccc(CNCCCP(=O)(O)O)cc2C(F)(F)F)cc1` [Compound 11, (3-{[4-{[5-(4-methoxyphenyl)pentyl]thio}-3-(trifluoromethyl)benzyl]amino}propyl)phosphonic acid], the pEC50 was 7.22.

With `O=P(O)(O)CCCNCc1ccc(SCCCCCc2ccc(Cl)cc2)c(C(F)(F)F)c1` [Compound 13, (3-{[4-{[5-(4-chlorophenyl)pentyl]thio}-3-(trifluoromethyl)benzyl]amino}propyl)phosphonic acid], the negative-log EC50 (pEC50) is 8.34.

For the compound `O=P(O)(O)CCCNCc1ccc(SCCCCCc2ccc(Cl)cc2)c(OC(F)(F)F)c1` [Compound 14, (3-{[4-{[5-(4-chlorophenyl)pentyl]thio}-3-(trifluoromethoxy)benzyl]amino}propyl)phosphonic acid], the pEC50 is 8.10.

Consider `O=P(O)(O)CCCNCc1ccc(SCCCCCc2ccc(F)cc2)c(OC(F)(F)F)c1` [Compound 15, (3-{[4-{[5-(4-fluorophenyl)pentyl]thio}-3-(trifluoromethoxy)benzyl]amino}propyl)phosphonic acid], for which the pEC50 was 8.80.

Regarding `Cc1ccc(CCCCCSc2ccc(CNCCCP(=O)(O)O)cc2OC(F)(F)F)cc1` [Compound 16, (3-{[4-{[5-(4-methylphenyl)pentyl]thio}-3 (trifluoromethoxy)benzyl]amino}propyl)phosphonic acid], the pEC50 was 8.46.

Consider `O=P(O)(O)C(F)(F)CCNCc1ccc(SCCCCCc2ccccc2)c(Cl)c1` [Compound 17, [3-({3-chloro-4-[(5-phenylpentyl)thio]benzyl}amino)-1,1-difluoropropyl]phosphonic acid], for which the pEC50 is 8.32.

As for `O=P(O)(O)C(F)(F)CCNCc1ccc(SCCCCCc2ccccc2)c(OC(F)(F)F)c1` [Compound 18, [1,1-difluoro-3-({4-[(5-phenylpentyl)thio]-3-(trifluoromethoxy)benzyl}amino)propyl]phosphonic acid], the pEC50 is 7.87.

For `CC(CCNCc1ccc(SCCCCCc2ccccc2)c(Cl)c1)P(=O)(O)O` (stereo not drawn) [Compound 19, [3-({3-chloro-4-[(5-phenylpentyl)thio]benzyl}amino)-1-methylpropyl]phosphonic acid], the pEC50 is 8.06.

Consider `Cc1cc(CNCCCP(=O)(O)O)ccc1SCCCCCc1ccccc1` [Compound 20, [3-({3-methyl-4-[(5-phenylpentyl)thio]benzyl}amino)propyl]phosphonic acid], for which the pEC50 is 8.49.

Regarding `O=P(O)(O)CCCNCc1ccc(SCCCCCc2ccccc2)c(F)c1` [Compound 21, [3-({3-fluoro-4-[(5-phenylpentyl)thio]benzyl}amino)propyl]phosphonic acid], the pEC50 is 9.52.

As to `N#Cc1cc(CNCCCP(=O)(O)O)ccc1SCCCCCc1ccc(F)cc1` [Compound 22, {3-[(3-cyano-4-{[5-(4-fluorophenyl)pentyl]thio}benzyl)amino]propyl}phosphonic acid], the pEC50 is 8.62.

In the case of `Cc1ccc(CCCCCSc2ccc(CNCCCP(=O)(O)O)cc2C)cc1` [Compound 23, {3-[(3-methyl-4-{[5-(4-methylphenyl)pentyl]thio}benzyl)amino]propyl}phosphonic acid], the pEC50 was 7.38.

With `O=P(O)(O)CCCNCc1ccc(SCCCCCc2ccc(F)cc2)cc1C(F)(F)F` [Compound 24, (3-{[4-{[5-(4-fluorophenyl)pentyl]thio}-2-(trifluoromethyl)benzyl]amino}propyl)phosphonic acid], the pEC50 is 8.06.

With `O=P(O)(O)CCCNCc1cc(F)c(SCCCCC2(c3ccccc3)CCCCC2)cc1F` [Compound 50, {3-[(2,5-difluoro-4-{[4-(1-phenylcyclohexyl)butyl]thio}benzyl)amino]propyl}phosphonic acid], the pEC50 was 9.05.

For the compound `COc1ccc(CCCCCSc2ccc(CNCCCP(=O)(O)O)cc2OC(F)(F)F)cc1` [Compound 163, (3-{[4-{[5-(4-methoxyphenyl)pentyl]thio}-3-(trifluoromethoxy)benzyl]amino}propyl)phosphonic acid], the pEC50 was 7.17.

Turning to `O=P(O)(O)CCCNCc1ccc(SCCCCC2(c3ccccc3)CCCCC2)c(Cl)c1` [Compound 164, {3-[(3-chloro-4-{[4-(1-phenylcyclohexyl)butyl]thio}benzyl)amino]propyl}phosphonic acid], the pEC50 is 8.70.

With `CC(C)(CCCCSc1ccc(CNCCCP(=O)(O)O)cc1Br)c1ccccc1` [Compound 165, [3-({3-bromo-4-[(5-methyl-5-phenylhexyl)thio]benzyl}amino)propyl]phosphonic acid], the pEC50 is 7.88.

In the case of `O=P(O)(O)CCCNCc1ccc(SCCCCCc2ccccc2)c(Br)c1` [Compound-1, [3-({3-bromo-4-[(5-phenylpentyl)thio]benzyl}amino)propyl]phosphonic acid], the pEC50 is 8.74.

What is called pEC50 is the negative decadic logarithm of the EC50, by convention in mol/L.
